Among the data in ChEMBL document CHEMBL3861944 (Medchemcomm, 2016) are Activity values, retold here.

Each structure is given as a SMILES string.

Experiment [1] has as its system ASPC1. Kind of experiment: Pro-apoptotic activity in human AsPC1 cells assessed as necrotic cells at 50 uM after 24 hrs by annexin V/propidium iodide staining-based flow cytometric method (reference value: 2.1 +/- 0.4%). The experiment is classed as functional.
Experiment [2] has as its system ASPC1. Kind of experiment: Pro-apoptotic activity in human AsPC1 cells assessed as late apoptotic cells at 1 uM after 24 hrs by annexin V/propidium iodide staining-based flow cytometric method (reference value: 0.8 +/- 0.1%). Type of experiment: functional.
The test system of experiment [3] is THP-1. Kind of experiment: Pro-apoptotic activity in human THP1 cells assessed as late apoptotic cells at 0.75 uM after 24 hrs by annexin V/propidium iodide staining-based flow cytometric method (reference value: 0.4 +/- 0.1%). Type of experiment: functional. (Flow cytometry measures light scatter and fluorescence of single cells or particles in a stream.)
For experiment [4], the system named is THP-1. Kind of experiment: Pro-apoptotic activity in human THP1 cells assessed as necrotic cells at 1 uM after 24 hrs by annexin V/propidium iodide staining-based flow cytometric method relative to control. The experiment is classed as functional.
The nature of experiment [5]: Cell cycle arrest in human THP1 cells assessed as accumulation at S phase at 10 uM after 24 hrs by flow cytometric method (reference value: 16 +/- 2%). Type of experiment: functional, cell-based. The conditions noted are these: THP-1.
The nature of experiment [6]: Cell cycle arrest in human AsPC1 cells assessed as accumulation at G0/G1 phase at 75 uM after 24 hrs by flow cytometric method (reference value: 48 +/- 7%). The experiment is classed as functional, cell-based.
The subject of experiment [7] is ASPC1. In words: Pro-apoptotic activity in human AsPC1 cells assessed as necrotic cells at 100 uM after 24 hrs by annexin V/propidium iodide staining-based flow cytometric method (reference value: 2.1 +/- 0.4%). The experiment is classed as functional.
A short description of experiment [8]: Cell cycle arrest in human THP1 cells assessed as accumulation at G2/M phase at 10 uM after 24 hrs by flow cytometric method (reference value: 32 +/- 1%). The experiment is classed as functional, cell-based. The conditions noted are these: THP-1.

For `NC(=[Se])N/N=C/c1cccc2cccnc12`, the Activity with ASPC1 [1] stood at 1.7%; in the experiment with ASPC1 [2], 0.4%; in the experiment on THP-1 [3] it was 2.4%; with THP-1 [4] it was 0.4%; in experiment [5], 27%; in experiment [6] it was 63.3%. Moreover, the figures for the Activity (in the experiment on ASPC1 [7]; in experiment [8]) were 5.5% and 28%, respectively.
